Structures can show the parent of a compound that is named as a salt.

The results in this text go back to patent publication US20230285435A1, “COMPOSITIONS AND METHODS FOR TREATING VIRAL INFECTIONS” (priority 2020, published 2023).

The subject of test [1] is SARS-CoV2 in Calu-3 cells. Type of test: cell-based.
In test [2] the test system is SARS-CoV2 infected Vero-E6 cells and human lung epithelial cells (Calu-3). Type of test: cell-based. On the set-up: inhibiting cytopathic effect (% of cells): dose or concentration left out as unconfirmed. Conditions: for synergy with remdesivir (BLISS independence model, synergyfinder): in combination with remdesivir, synergy score >10 signifies synergy; for efficacy of the agent alone, in words: single agent.

For `COC(=O)N[C@H](C(=O)N1CCC[C@H]1c1ncc(-c2ccc(-c3ccc(-c4cnc([C@@H]5CCCN5C(=O)[C@@H](NC(=O)OC)C(C)C)[nH]4)cc3)cc2)[nH]1)C(C)C` [Daclatasvir dihydrochloride], in test [1], the “synergy in combination with remdesivir” value was “synergy”.
For `COC(=O)N[C@H](C(=O)N1CC2(CC2)C[C@H]1c1ncc(-c2ccc3c(c2)C(F)(F)c2cc(-c4ccc5nc(C6[C@H]7CC[C@H](C7)N6C(=O)[C@@H](NC(=O)OC)C(C)C)[nH]c5c4)ccc2-3)[nH]1)C(C)C` (stereo partly drawn) [Ledipasvir acetone], in test [1], the “synergy in combination with remdesivir” value was “synergy”.
Consider `COC(=O)N[C@H](C(=O)N1CC2(CC2)C[C@H]1c1ncc(-c2ccc3c(c2)C(F)(F)c2cc(-c4ccc5nc([C@@H]6[C@H]7CC[C@H](C7)N6C(=O)[C@@H](NC(=O)OC)C(C)C)[nH]c5c4)ccc2-3)[nH]1)C(C)C` [Ledipasvir], for which the “synergy in combination with remdesivir” value in test [1] is recorded as “synergy”.
The same measure, in the same setting: the value for `COc1c(C)c2c(c(O)c1C/C=C(\C)CCC(=O)O)C(=O)OC2` [Mycophenolic acid] was “synergy”.
For `COC(=O)N[C@H](C(=O)N1CCC[C@H]1C(=O)Nc1ccc([C@@H]2CC[C@@H](c3ccc(NC(=O)[C@@H]4CCCN4C(=O)[C@@H](NC(=O)OC)C(C)C)cc3)N2c2ccc(C(C)(C)C)cc2)cc1)C(C)C` [Ombitasvir], the “synergy in combination with remdesivir” value in test [1] is “synergy”.
As to `COC(=O)N[C@H](C(=O)N1CCC[C@H]1c1nc2cc([C@H]3CC[C@H](c4cc5nc([C@@H]6CCCN6C(=O)[C@@H](NC(=O)OC)[C@@H](C)OC)[nH]c5cc4F)N3c3cc(F)c(N4CCC(c5ccc(F)cc5)CC4)c(F)c3)c(F)cc2[nH]1)[C@@H](C)OC` [Pibrentasvir], in test [1], the “synergy in combination with remdesivir” value is “synergy”.
Consider `COC[C@H]1C[C@@H](c2nc(-c3ccc4c(c3)COc3cc5c(ccc6nc([C@@H]7CC[C@H](C)N7C(=O)[C@@H](NC(=O)OC)C(C)C)[nH]c65)cc3-4)c[nH]2)N(C(=O)[C@H](NC(=O)OC)c2ccccc2)C1` [Velpatasvir], for which, in test [2], the “synergy with remdesivir (BLISS independence model, synergyfinder)” value is “strongest” and the “efficacy of the agent alone, in words” value is reported as “modest efficacy”. Besides, the “inhibiting cytopathic effect (% of cells)” value in test [2] (velpatasvir alone (so in the source)) was determined as 16%.
Regarding `CCC(CC)COC(=O)[C@H](C)N[P@](=O)(OC[C@H]1O[C@@](C#N)(c2ccc3c(N)ncnn23)[C@H](O)[C@@H]1O)Oc1ccccc1` [remdesivir], the “preventing a virus-caused pathology (% of cells)” value in test [2] (300 nM remdesivir alone) came to 7%. Besides, the “efficacy of the agent alone, in words” value in test [2] is “only active at high uM concentrations”.
For Elbasvir, the “synergy with remdesivir (BLISS independence model, synergyfinder)” value in test [2] is “synergistic”.
